Three molecules from ChEMBL document CHEMBL6074635, “Replacement of the essential nitro group by electrophilic warheads towards nitro-free antimycobacterial benzothiazinones” (Eur J Med Chem, 2024) can be followed below.

Experiment [1] addresses T1, Decaprenylphosphoryl-beta-D-ribose oxidase (Mycobacterium tuberculosis (strain ATCC 25618 / H37Rv)) (UniProt P9WJF1).
T1 sequence (whole entry): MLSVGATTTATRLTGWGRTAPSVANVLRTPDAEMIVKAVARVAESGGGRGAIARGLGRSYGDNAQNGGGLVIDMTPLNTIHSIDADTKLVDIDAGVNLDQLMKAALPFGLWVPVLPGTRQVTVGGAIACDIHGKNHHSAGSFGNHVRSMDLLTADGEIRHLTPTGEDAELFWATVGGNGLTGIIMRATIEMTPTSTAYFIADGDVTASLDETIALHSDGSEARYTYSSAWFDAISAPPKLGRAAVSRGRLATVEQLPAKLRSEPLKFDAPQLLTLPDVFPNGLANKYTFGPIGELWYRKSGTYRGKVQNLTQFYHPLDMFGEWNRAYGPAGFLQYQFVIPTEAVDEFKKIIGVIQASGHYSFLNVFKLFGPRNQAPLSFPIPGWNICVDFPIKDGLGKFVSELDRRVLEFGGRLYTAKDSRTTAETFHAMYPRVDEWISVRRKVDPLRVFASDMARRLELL
Description: Substrate activity at recombinant Mycobacterium tuberculosis DprE1 extracted from Escherichia coli BL21(DE3) assessed as fold change in Km incubated for 60 mins by resazurin dye based fluorescence plate reader analysis relative to FPR.

The target of experiment [2] is T1, Decaprenylphosphoryl-beta-D-ribose oxidase (Mycobacterium tuberculosis (strain ATCC 25618 / H37Rv)). Description: Covalent inhibition of recombinant Mycobacterium tuberculosis DprE1 extracted from Escherichia coli BL21(DE3) assessed as inactivation rate constant (Kinact) using FPR/GGPR as substrate incubated for 60 mins by resazurin dye based fluorescence plate reader analysis. A general note: Alamar Blue is a resazurin reagent that responds to reducing activity.

Experiment [3] shares this target. Description: Covalent inhibition of recombinant Mycobacterium tuberculosis DprE1 extracted from Escherichia coli BL21(DE3) assessed as Kinact/Ki ratio using FPR/GGPR as substrate incubated for 60 mins by resazurin dye based fluorescence plate reader analysis.
Experiment [4] shares this target. Description: Reversible inhibition of recombinant Mycobacterium tuberculosis DprE1 extracted from Escherichia coli BL21(DE3) using FPR/GGPR as substrate by measuring fold change incubated for 60 mins by resazurin dye based fluorescence plate reader analysis relative to (S)-2-Fluoro-N-(2-(2-methyl-1,4-dioxa-8-azaspiro[4.5]decan-8-yl)-4-oxo-6-(trifluoromethyl)-4H-benzo[e][1,3]thiazin-8-yl)acrylamide.

`CC(C)=CCC/C(C)=C/CC/C(C)=C/CC/C(C)=C/COP(=O)(O)OC1O[C@H](CO)[C@@H](O)[C@H]1O` (some centres undefined): in experiment [1], the fold change (FC) stood at 22.

As to `C[C@H]1COC2(CCN(c3nc(=O)c4cc(C(F)(F)F)cc(NC(=O)C(C)(C)Br)c4s3)CC2)O1`, the Kinact in experiment [2] was found to be 0.067 min⁻¹. The Ratio in experiment [3] was determined as 2.13 M⁻¹ s⁻¹.

Turning to `C=CS(=O)(=O)Nc1cc(C(F)(F)F)cc2c(=O)nc(N3CCC4(CC3)OC[C@H](C)O4)sc12`, the fold change (FC) in experiment [4] was found to be 8.
